From patent publication US6927231B2, “Use of creatine for the amelioration of oxidative stress” (2458781 Canada Inc., priority 2001, dated 2005) come the findings set out here.

Structures are written as SMILES. Where “and” joins values, the source holds several entries; their conditions need not be identical. Equal entries are not always repeated.

Assay [1] is described as follows: Acid-soluble thiol concentration in the plasma during N-acetylcysteine ingestion. It counts as in vivo, human. The settings on record: healthy subject; NAC approximately 0.1-0.4 g per week, periods 1, 2, 5 and 6. How it is done:
(§1) During the periods 1,2,5 and 6, the subject ingested small doses of N-acetylcysteine (NAC) (approximately 0.1-0.4 g per week) to adjust the acid-soluble thiol concentration in the plasma to an average value of about 15 μM, which corresponds approximately to the mean of healthy young subjects (see FIG. 1). In period 2, the subject ingested 3-4 times per week creatine at a dosis of approximately 3-4 g per week. In the period 4 and 6, the subject ingested creatine 6-7 times per week at a mean dose of approximately 6-8 g per week. Creatine was discontinued twice for one week each after the cystine level fell to a value of 40 and 41 μM, respectively. […] The P values illustrate the statistical significance for the differences between different treatment periods.

Assay [2] in a line: Plasma cystine concentration of a subject during creatine treatment periods. In kind it is in vivo, human. The settings on record: healthy subject.
Source text: FIG. 3 illustrates the results of a study that is described in more detail in example 1. The ordinate (c) describes the plasma cystine concentration in μMol. The columns 1-6 describe the mean plasma cystine concentrations during 6 successive treatment periods of a subject as described in example 1.
as §1

`CC(=O)N[C@@H](CS)C(=O)O` [N-acetylcysteine]: in assay [1], the “acid-soluble thiol concentration in the plasma, average value” is listed as “about 15 μM”.
Regarding `CN(CC(=O)O)C(=N)N` [creatine], the “cystine level at which creatine was discontinued” value in assay [2] (creatine discontinued twice for one week each after the level fell to this value) was 40 µM and 41 µM. In assay [2] (relatively small oral doses of creatine (approx. 3-8 g per week) during a total period of about 2.5 years, level corresponds to 20-35 year-old healthy subjects), the plasma cystine level result was “approximately 50 μ”.
